From ChEMBL document CHEMBL1201862, “PubChem BioAssay data set” (2004)
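Cells were grown in 96-well plates and exposed to each compound for 48 hours at five concentrations; endpoints were interpolated linearly between bracketing concentrations, or set to the highest concentration if not reached. GI50 = concentration required for 50% inhibition of growth.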 Active and inactive are the calls of the source. Cut-off read from the data, not from the text of the source: active = GI50 up to about 1.1 µM and inactive = higher.

How the values were obtained:
Assay in all cases: NCI anticancer screen, dose series, 48 h
[1] = test system: 786-0
[2] = test system: UACC-62
[3] = test system: T47D
[4] = test system: K562
[5] = test system: NCI-H522
[6] = test system: NCI-H23
[7] = test system: SF-295
[8] = test system: RPMI-8226
[9] = test system: DU-145
[10] = test system: SW-620
[11] = test system: UACC-257
[12] = test system: A498
[13] = test system: SR
[14] = test system: SF-268
[15] = test system: Malme-3M
[16] = test system: MOLT-4
[17] = test system: COLO 205
[18] = test system: SNB-75
[19] = test system: SK-OV-3
[20] = test system: HCC 2998

Measured: GI50

Cc1ccc(S(=O)(=O)OCC(=O)O)cc1
inactive: [1] > 100 µM | [2] > 100 µM | [3] > 100 µM | [4] > 100 µM | [5] > 100 µM | [6] > 100 µM | [7] > 100 µM | [8] > 100 µM | [9] > 100 µM | [10] > 100 µM | [11] > 100 µM | [12] > 100 µM | [13] > 100 µM | [14] > 100 µM | [15] > 100 µM | [16] > 100 µM

O=[N+]([O-])c1ccc(Cl)cc1N/N=C/c1cccc2cccnc12
inactive: [1] > 100 µM | [2] > 100 µM | [17] > 100 µM | [3] > 100 µM | [4] 89.9 µM | [5] > 100 µM | [6] > 100 µM | [7] > 100 µM | [8] 20.3 µM | [9] > 100 µM | [10] 96.6 µM | [11] > 100 µM | [13] 15.3 µM | [18] 59.2 µM | [14] > 100 µM | [16] 39.7 µM | [19] > 100 µM | [20] > 100 µM

COc1cc(/C=C2\C(=O)N(c3ccc(Cl)cc3)C(c3ccccc3)S2(=O)=O)cc(OC)c1OC (stereo not given)
active: [4] 0.726 µM
inactive: [1] 39.4 µM | [2] 2.19 µM | [17] 1.99 µM | [3] 2.77 µM | [5] 14.5 µM | [6] 6.4 µM | [7] 11.9 µM | [8] 7.46 µM | [9] > 100 µM | [10] 32.2 µM | [11] 21.4 µM | [12] > 45.5 µM | [18] 53.8 µM | [14] 31 µM | [15] 42.3 µM | [16] 26.9 µM | [19] 14 µM | [20] 41.4 µM

CC(NC(=O)C(OC(=O)C(C)NC(=O)OC(C)(C)C)C(C)C)C(=O)OC(C(=O)O)C(C)C (stereo not given)
inactive: [1] > 100 µM | [2] > 100 µM | [17] > 100 µM | [3] > 100 µM | [4] > 100 µM | [5] > 100 µM | [7] > 100 µM | [8] > 100 µM | [9] > 100 µM | [10] > 100 µM | [11] > 100 µM | [13] > 100 µM | [18] > 100 µM | [14] > 100 µM | [15] > 100 µM | [16] > 100 µM | [19] > 100 µM | [20] > 100 µM

O=C1N/C(=N/N=C/C(O)C(O)C(O)C(O)CO)N/C1=C\c1cccs1 (stereo not given)
inactive: [1] > 100 µM | [2] > 100 µM | [17] > 100 µM | [3] 93.8 µM | [4] > 100 µM | [5] 88.5 µM | [6] > 100 µM | [7] > 100 µM | [8] > 100 µM | [9] > 100 µM | [10] > 100 µM | [11] > 100 µM | [12] 73.1 µM | [18] > 100 µM | [14] > 100 µM | [15] > 100 µM | [16] > 100 µM | [19] > 100 µM | [20] > 100 µM

C=C(C)C(=O)O[C@H]1CC2=CC(CC(C)=C[C@H]3OC(=O)C(=C)C13)OC2=O (stereo not given in full)
inactive: [1] 9.08 µM | [2] 17.4 µM | [17] 14.5 µM | [3] 11.2 µM | [4] 7.74 µM | [5] 2.53 µM | [6] 39.3 µM | [7] > 100 µM | [8] 2.93 µM | [9] 15.5 µM | [10] 11.8 µM | [11] 25.5 µM | [12] 35.8 µM | [18] > 100 µM | [14] 20.6 µM | [15] 20.2 µM | [16] 19.8 µM | [20] 35 µM

C[C@H]1[C@H]2[C@H]3CC[C@@H]4[C@@]5(C)CC[C@H](O)C(C)(C)[C@@H]5CC[C@@]4(C)[C@]3(C)C[C@H](O)[C@@]2(C)C[C@H]2O[C@]21C
inactive: [1] 19.5 µM | [2] 23.2 µM | [17] 24 µM | [3] 16 µM | [5] 22.3 µM | [6] 18.2 µM | [7] 15.6 µM | [8] 19.4 µM | [9] 15.5 µM | [10] 24 µM | [11] 16.8 µM | [12] 21.4 µM | [14] 18 µM | [15] 20 µM | [16] 27.5 µM | [19] 14.7 µM | [20] 17.5 µM
